US20240173456A1, “THERAPEUTIC COMPOSITIONS FOR WOUND TREATMENT” (GlycoSurf, Inc., priority 2022, published 2024)

How the values were obtained:
[1] = system: Human dermal neonatal fibroblasts (hDFn); assay: Rhamnolipid vs. thioglycolipid comparative scratch assay; assay type: cell-based; conditions: 6.25-50 μM, over 24 hours, particularly at the 4-hour and 8-hour time marks, FIGS. 9, 10A-10B
Experimental: Rhamnolipid vs. Thioglycolipid Comparative Scratch Assays. Human dermal neonatal fibroblasts (hDFn) were seeded in 3×12-well plates at 10,000 cell/cm^2. Media (Dulbecco's Modified Eagle Medium (DMEM)) was changed every 48 hours. Plates were imaged every 4 hours for 24 hours. Plates were analyzed via MATLAB® and RStudio®.

[2] = system: hDFn cells; assay: PrestoBlue assay, metabolic activity; assay type: cell-based, human; conditions: vs control
Experimental: (§1) PrestoBlue™ and CyQUANT™ Direct Assay. PrestoBlue™ and CyQuant™ (PBCQ) direct confirmation assay (from ThermoFisher®) for cell viability was used to assess the biocompatibility of hDFn cells in DMEM complete media with varying concentrations of rhamnolipids. Passage 5 hDFn cells were seeded at 11,200 cells/mL density into black wall, clear bottom 96-well tissue culture plates. The cells were placed inside the standing incubator at 37° C. and 5% CO2 until reaching 70-90% confluence. […] The plate layout included blank wells containing DMEM complete media and the corresponding rhamnolipid concentrations. Following 24 hours, 100 μL was removed from each well and replaced with 10 μL of the PrestoBlue reagent. The plates were then incubated for 20 minutes at 37° C. and 5% CO2 prior to being placed in the Biotek® Synergy HT fluorescence microplate reader at 590 nm with a gain value of 35. Afterward, 100 μL of the CyQuant reagent composition was added to all wells and incubated for 60 minutes. The plates were read using the same microplate reader at 528 nm with a gain of 70. The relative fluorescence units (RFU) were produced for all wells, correlating with the metabolic output per unit of DNA.
(§2) Statistical Analysis. Statistically significant differences were determined using GraphPad Prism. The results of the cellular migration assay were analyzed with a one-way ANOVA and Tukey post hoc evaluation. The PBCQ assay was analyzed using a one-way ANOVA and Tukey post hoc evaluation. For all experiments, a p-value<0.05 was considered statistically significant in this study.
(§3) The control scaffold, the SEM image of which is shown in FIG. 5A, was not impregnated with rhamnolipids, or had hDFn cells seeded onto it. In particular, the observable porosity is not structurally different in FIG. 5A compared to the other images (FIGS. 5B-5E) depicting impregnated scaffolds without cells. As the percentage of rhamnolipids increased, the porosity of the scaffold remained relatively similar to the control. […] Visually, the hDFn cells appeared to have been able to adhere and colonize onto impregnated scaffolds which could be further explored to better understand the cytocompatibility of rhamnolipids and if their morphology is influenced by the concentration of the surfactant. PrestoBlue™ and CyQUANT™ Direct Assay. The PrestoBlue™ and CyQUANT™ Direct assays were used to determine the cellular compatibility of hDFn cells when in the presence of rhamnolipids. The PrestoBlue™ assay is a resazurin-based solution when upon entering a living cell, the reagent is reduced to resorufin which is red in color and fluorescent. The overall health of the cell can be observed by changes in fluorescence and subsequently absorbance. […] The CyQUANT™ Direct assay is a cell-permeant green nucleic acid stain that is combined with a masking dye reagent. The masking dye stops the staining of non-viable cells or cells with compromised cell membranes, resulting in only the viable cells being stained. The CyQUANT™ Direct assay measures proliferation as well as membrane integrity. The data was evaluated using GraphPad Prism to run a one-way ANOVA.

[3] = system: hDFn cells; assay: CyQUANT Direct assay, DNA content of living cells; assay type: cell-based, human; conditions: vs control
Experimental: as §1, §2, §3

[4] = system: neonatal human dermal fibroblast (hDFn) cells; assay: Cellular migration assay (scratch, mock wound), with or without uranyl nitrate (depleted uranium) exposure; assay type: cell-based
Experimental: Preparation of Depleted Uranium Solution. Approximately 0.005 g of uranyl nitrate (UN) crystals, purchased from American Scientific were weighed and solubilized in 40 mL of Dulbecco's modified eagle medium (DMEM) containing 10% fetal bovine serum (FBS) (DMEM complete) from Gibco® to create an initial working stock solution. Uranyl nitrate stock underwent 60 seconds of pipette mixing to confirm proper disintegration prior to vacuum sterilization using a 0.22 μm filter. Molecular weight was used to calculate the appropriate starting molarity before utilizing weight-volume concentrations to obtain the following experimental dilutions: 0.1 μM, 0.2 μM, 1.0 μM, 2.0 μM, 10 μM, 20 μM made from the sterile-filtered stock solution.
Cell Culture of Neonatal Human Dermal Fibroblasts (hDFn). Passage one neonatal human dermal fibroblast (hDFn) cells were purchased from Cell Applications, Inc. (P1, lot #1734). The hDFn cells were incubated at 37° C., 5% CO2, and passaged using a T-75 tissue culture flask from Corning, completing media changes every 48 hours until 90% confluency was met. Cells were subcultured at a density of 10×10^5 cells/mL, frozen in DMEM containing 10% DMSO, and stored at −80° C. for 24 hours before being placed in liquid nitrogen vapor phase for long-term preservation. The subsequent process was repeated until passage 4 isolates were frozen down.
Rhamnolipid Solution. About 0.0125 g of rhamnolipids (Rha-C10-C10) from Glycosurf were weighed and diluted in 50 mL of 1× phosphate-buffered saline (PBS) to obtain a 200 μM rhamnolipid stock solution. The solution was heated prior to being vortexed for maximum dissolution and sterilized through a vacuum using a 0.22 μm filter. The molarity of rhamnolipid stock solution was found using actual mass ([…]) and molecular weight to calculate experiment dilutions of 6.25 μM, 50 μM, and 100 μM.
Cellular Migration Assay. Human neonatal dermal fibroblasts (hDFn) passage 4, were seeded into a T-75 flask at 10×10^5 cells/mL density and grown in a standing incubator at 37° C., 5% CO2. Once 90% confluence was reached, hDFn were subcultured into 12-well plates, and respective UN treatments with or without rhamnolipids were added. After 24 hours, contents were removed, and the monolayer of fibroblasts was scratched vertically using a sterile pipet tip creating the mock wound (FIG. 1). Wells were then washed twice with Hanks' Balanced Salt Solution (HBSS). Respective treatments were added back into wells and cellular migration rates were monitored and imaged over time (0 hours, 12 hours, and 24 hours). Percent closure rates were collected using MATLAB®.
as §2

In the case of `CCCCCCC[C@H](CC(=O)O)OC(=O)C[C@@H](CCCCCCC)O[C@@H]1O[C@@H](C)[C@H](O)[C@@H](O)[C@H]1O` [rhamnolipids, Rha-C10-C10], the “wound healing (percent closure) compared with thioglycolipid compositions” value [1] is reported as “faster healing”, the “metabolic activity (RFU)” value ([2]; 6.25 μM rhamnolipids, 24 hours, n=6 (FIG. 7A), Tukey's p<0.001) is reported as “statistically significant increase” and the “metabolic activity (RFU)” value ([2]; 6.25 μM rhamnolipids, n=12 (FIG. 8A), Tukey's p<0.001) is reported as “statistically significant increase”. The “metabolic activity (RFU)” value ([2]; 50 μM rhamnolipids, 24 hours, n=6 (FIG. 7A), Tukey's p<0.001) was “statistically significant increase”, the “metabolic activity (RFU)” value ([2]; 50 μM rhamnolipids, n=12 (FIG. 8A), Tukey's p<0.001) was “statistically significant increase” and the “metabolic activity (RFU)” value ([2]; maximum concentration of rhamnolipids (100 μM), n=12 (FIG. 8A)) was “statistically significant decrease”. The “cellular DNA content (RFU)” value ([3]; 100 μM rhamnolipids, n=12 (FIG. 8B)) was “statistically significant decrease”, the “living DNA content (RFU)” value ([3]; high concentration of rhamnolipids (50 μM), 24 hours, n=6 (FIG. 7B)) was “no statistically significant difference” and the “living DNA content (RFU)” value ([3]; high concentration of rhamnolipids (50 μM), n=12 (FIG. 8B)) was “no statistically significant difference”. The “cellular DNA content (RFU)” value ([3]; low concentration of rhamnolipids (6.25 μM), 24 hours, n=6 (FIG. 7B), Tukey's p<0.001) was “statistically significant increase”, the “living DNA content (RFU)” value ([3]; low concentration of rhamnolipids (6.25 μM), n=12 (FIG. 8B)) was “no statistically significant difference” and the mean percent closure ([4]; 24 hours post-wound, across the different treatments (considered closed)) was “no statistically significant difference”. For the same compound, the “cellular migration (percent closure)” value ([4]; absence of UN, high dose of rhamnolipids (50 μM), 12 hours post-wound, vs control, Tukey's p=0.001) was “statistically significant increase”, the mean percent closure ([4]; absence of UN, low concentration of rhamnolipids (6.25 μM), vs control) was “no statistically significant difference” and the “percent closure (migration rate)” value ([4]; hDFn exposed to 0.1 μM UN + 50 μM rhamnolipids, 12 hours post-wound, vs control, p-value=0.021) was “statistically significant increase”. The “percent closure (migration rate)” value ([4]; hDFn exposed to 1.0 μM UN + 6.25 μM rhamnolipids, 12 hours post-wound, p-value=0.012) was “statistically significant increase”, the “percent closure (migration rate)” value ([4]; hDFn exposed to 1.0 μM UN + 50 μM rhamnolipids, 12 hours post-wound, vs control, p-value<0.001) was “statistically significant increase” and the “percent closure (migration rate)” value ([4]; hDFn exposed to 10 μM UN + 50 μM rhamnolipids, 12 hours post-wound, vs control, p-value=0.009) was “statistically significant increase”.
